The record followed here is ChEMBL document CHEMBL1138441, “3-Benzyl-1,3-oxazolidin-2-ones as mGluR2 positive allosteric modulators: Hit-to lead and lead optimization” (Bioorg Med Chem Lett, 2009).

Usually Papp A→B stands for the apparent permeability from the apical to the basolateral side of a cell layer. A lower Papp A→B goes with slow passage. A word on the Kp: it is the ratio of the level in a tissue or fluid to that in plasma or blood. One may read the bioavailability as the share of a dose that reaches the circulation, judged against a reference dose that is usually intravenous.

Data set [1] is described as follows: Permeability from apical to basolateral side of MDCK cells at 2 uM by MS based assay. It counts as ADME, cell-based, Canis lupus familiaris. The conditions noted are these: dog.
Data set [2] is described as follows: Ratio of drug level in mouse brain to plasma at > 32 mg/kg, sc after 30 mins. The data set is classed as ADME, organism-based. Also on record: dose 32 mg/kg, route subcutaneous.
The nature of data set [3]: Drug level in mouse brain at 10 mg/kg, sc after 2 hrs. Details: dose 10 mg/kg, route subcutaneous. The conditions noted are these: read-out: Drug uptake. It counts as ADME, organism-based.
A short description of data set [4]: Plasma concentration in mouse at 10 mg/kg, sc after 2 hrs. It counts as ADME, organism-based. Details: dose 10 mg/kg, route subcutaneous. The settings on record: read-out: Drug uptake.
A short description of data set [5]: Ratio of drug level in mouse brain to plasma at 10 mg/kg, sc after 2 hrs. It counts as ADME, organism-based. Details: dose 10 mg/kg, route subcutaneous.
Data set [6] can be described thus: Volume of distribution at steady state in rat at 1 mg/kg, iv. The data set is classed as ADME, organism-based. Also on record: dose 1 mg/kg, route intravenous. The conditions noted are these: in vivo, read-out: Vdss.
The nature of data set [7]: Oral bioavailability in rat at 10 mg/kg. It counts as ADME, organism-based. The conditions noted are these: in vivo.
The nature of data set [8]: Drug level in mouse brain at > 32 mg/kg, sc after 30 mins. The data set is classed as ADME, organism-based. Details: dose 32 mg/kg, route subcutaneous. The settings on record: read-out: Drug uptake.
Data set [9] is described as follows: Plasma concentration in mouse at > 32 mg/kg, sc after 30 mins. It counts as ADME, organism-based. Details: dose 32 mg/kg, route subcutaneous. The settings on record: read-out: Drug uptake.
Data set [10] is described as follows: Oral bioavailability in rat at 3 mg/kg. It counts as ADME, organism-based. The settings on record: in vivo.

Molecule `CC(Oc1ccc(CN2C[C@@H](C)OC2=O)cc1)C1CCCCC1` (single isomer, unassigned) gave a Papp A→B at 2 µM in data set [1] of 12.3 ×10⁻⁶ cm/s. In addition, in data set [2], the Kp at 0.5 h was determined as 3.
Take `C[C@@H]1CN(Cc2ccc(-c3ccc(F)c(Cl)c3)cc2)C(=O)O1`: the concentration at 2 h was determined as 2750 ng/g in data set [3] and 750 ng/mL in data set [4]. Besides, the Kp at 2 h in data set [5] amounted to 3.7. Further, in data set [6], the Vd was determined as 3.2 L/kg. This molecule also yielded a bioavailability in data set [7] of 64%.
Regarding `C[C@@H]1CN(Cc2ccc(-c3ccc(OC(F)(F)F)cc3F)nc2)C(=O)O1`, the concentration at 0.5 h in data set [8] was 10100 ng/g; in [9] it was 3550 ng/mL. The Vd in data set [6] worked out at 4.7 L/kg. Moreover, in data set [10], the bioavailability came out at 100%.
Regarding `C[C@@H]1CN(Cc2ccc(-c3ccc(F)cc3F)cc2)C(=O)O1`, the values for the concentration at 2 h in data set [3] and in [4] were 2230 ng/g and 1070 ng/mL, respectively. For the same molecule, in data set [5], the partition ratio (Kp) at 2 h came out at 2.1.
